Reference: patent US20210353681A1, “USE OF TNKS INHIBITORS FOR REGENERATION OF CARTILAGE” (SEOUL NATIONAL UNIVERSITY R&DB FOUNDATION, priority 2020, published 2021)

Experiments:
[1] = tested on: primary cultured mouse chondrocytes; test: mRNA and protein levels of cartilage-specific matrix genes in primary cultured mouse chondrocytes; assay type: cell-based; details: for expression of cartilage-specific matrix genes: chondrocytes treated with drugs, mRNA and protein levels (FIG. 1f, g)
Description: Primary culture of mouse articular chondrocytes. For the primary culture of mouse articular chondrocytes, cells were isolated from femoral condyles and tibial plateaus of 4-5-day-old ICR mice, as described previously^83. Chondrocytes were maintained in DMEM supplemented with 10% fetal bovine serum (FBS), 100 units/ml penicillin, and 100 μg/ml streptomycin, and cells were treated as indicated in each experiment. Transfection was performed with […] PRO (Biontex) according to the manufacturer's protocol. All siRNAs, including negative control siRNA, were purchased from Bioneer. Recombinant mouse Wnt-3a (315-20) was purchased from PeproTech, and recombinant mouse Dkk-1 (5897-DK) was purchased from R&D Systems.
RT-PCR and qPCR. Total RNAs were extracted using TRI reagent (Molecular Research Center, Inc.). RNAs were reverse transcribed using EasyScript Reverse Transcriptase (Transgen Biotech). Then, cDNA was amplified by PCR or qPCR with the primers listed in Table 2. qPCR was performed with SYBR TOPreal qPCR 2× preMIX (Enzynomics) to determine transcript abundance. Transcript quantity was calculated using the ΔΔCt method, and Hprt or HPRT1 levels were used as housekeeping controls. The log 2 (fold change) value of the cartilage stromal gene of mouse articular chondrocytes treated with siRNA was clustered using a hierarchical clustering algorithm (mean association and central correlation distance) in 1.0.4 R package. PCA was performed using the same R package.
Whole-cell lysate preparation. Whole-cell lysates were prepared in RIPA buffer (150 mM NaCl, 1% NP-40, 50 mM Tris, pH 8.0, 0.5% sodium deoxycholate, 0.1% SDS) supplemented with a protease inhibitor cocktail (Sigma-Aldrich).

mouse chondrocytes = test: RNA sequencing and gene set enrichment analysis of treated chondrocytes; assay type: cell-based; details: drugs 10 μM for 108 h vs vehicle; siRNAs vs control siRNA
Description: RNA sequencing (RNA-seq). Primary cultured mouse articular chondrocytes were treated with DMSO or 10 μM of XAV939 or IWR-1 for 108 h or transfected with control siRNA or Tnks and Tnks2 siRNAs. Three biological replicates were used for each group. One microgram of high-quality RNA samples (RIN>7.0) were used to construct RNA-seq libraries with the TruSeq Stranded mRNA Library Prep kit (Illumina). Libraries were validated with an Agilent 2100 Bioanalyzer. RNA-seq was performed on an Illumina HiSeq 2500 sequencer at Macrogen. The sequence reads were trimmed with Trimmomatic^86 and mapped against the mouse reference genome (mm10) using TopHat. Read counts per gene were calculated using HTSeq^88. Differential expression analysis was conducted using the DESeq2 R package^89. DEGs were selected using a |fold change| cutoff of >3 and a FDR q cutoff of <1×10^−5. DEGs at least one condition were clustered with hierarchical clustering algorithm (ward.D linkage with euclidean distance) using gplots R package. GO analysis was conducted using Enrichr^90. Heatmaps of DEGs that are in the cartilage-signature gene set or the osteoarthritis-signature gene sets were drawn with Gitools.
GSEA analysis. Genes were ranked according to the shrunken log2 fold change calculated via DESeq2. […]

[2] = tested on: articular cartilage of DMM-operated mouse; test: Experimental OA in mice (DMM surgery), intra-articular hydrogel drug delivery; assay type: in vivo; details: for degeneration of cartilage matrix caused by DMM (Safranin O staining, OARSI grade): IA administration in hydrogel, 10 nmol drug
Description: Preparation of hydrogels and in vivo confirmation of controlled release of embedded molecules. 6-O-Palmitoyl-l-ascorbic acid (76183) was purchased from Sigma-Aldrich. […] PBS-suspended hydrogel (10 μl, PBS:hydrogel=1:1) containing 50 pmol DiD was administered intra-articularly, and at 1-9 days post-injection, light-emitting diode (LED) and fluorescence images of knee joints were obtained. LuminoGraph II (Atto) was used to acquire the images.
Experimental OA in mice. Eight-week-old male ICR mice were used for experimental OA. Experimental OA was induced by DMM (Destabilization of the medial meniscus) surgery on the right hindlimb, and sham surgery was conducted on the left hindlimb as a control (Glasson, S. S., Blanchet, T. J. & Morris, E. A. The surgical destabilization of the medial meniscus (DMM) model of osteoarthritis in the 129/SvEv mouse. Osteoarthritis Cartilage 15, 1061-1069, doi:10.1016/j.joca.2007.03.006 (2007)). 10 μl of PBS-suspended hydrogel (PBS:hydrogel=1:1) containing vehicle or 10 nmol drugs was administered intra-articularly.
Histology and immunohistochemistry. Mouse and rat knee joint samples and human cartilage samples were fixed with 4% paraformaldehyde overnight at 4° C. All samples were […] for 2-4 weeks 0.5M EDTA, pH 7.4 at 4° C. and embedded in paraffin. Mouse and rat paraffin blocks were sectioned at a thickness of 6 μm, and human paraffin blocks were sectioned to a thickness of 5 μm. […] Cartilage regeneration in osteochondral defect model was scored according to the International Cartilage Repair Society (ICRS) scoring system (Haikarainen, T., Krauss, S. & Lehtio, L. Tankyrases: structure, function and therapeutic implications in cancer. Curr Pharm Des 20, 6472-6488 (2014) and Mainil-Varlet, P. et al. Histological assessment of cartilage repair: a report by the Histology Endpoint Committee of the International Cartilage Repair Society (ICRS). J Bone Joint Surg Am 85-A Suppl 2, 45-57 (2003)) by three blinded observers.

[3] = tested on: mouse limb-bud mesenchymal cells; test: Mouse limb-bud micromass culture, Alcian Blue staining; assay type: cell-based; details: micromass cultures, treated 3 days
Description: Mouse limb-bud micromass culture. For the micromass culture of mesenchymal cells, limb-bud cells were isolated from E11.5 ICR mouse embryos. 2.0×10^7 cells/ml were suspended in DMEM supplemented with 10% FBS, 100 units/ml penicillin, and 100 μg/ml streptomycin, and 15-μ1 drops were spotted on culture dishes. After 24 h, cells were treated as indicated for 3 days and subjected to Alcian Blue staining.

Compound	expression of cartilage-specific matrix genes [1]	enrichment of cartilage-signature genes in whole transcriptome (GSEA) (mouse chondrocytes)	degeneration of cartilage matrix caused by DMM (Safranin O staining, OARSI grade) [2]	chondrogenic nodule formation [3]	cartilage destruction in late-stage OA (Safranin O staining, OARSI grade) ([2]; treatment started 6 weeks after DMM surgery, for additional 6 weeks, compared with vehicle-treated mice)	expression of cartilage matrisome ([1]; β-catenin inhibition in chondrocytes (FIG. 2e, f, g), iCRT 14 for 24 h)
C[C@]1(c2nc3c(C(N)=O)cccc3[nH]2)CCCN1 [ABT-888]	failed to increase their expressions					
O=C(Nc1cccc2cccnc12)c1ccc(N2C(=O)C3C4C=CC(C4)C3C2=O)cc1 (centres unmarked) [IWR-1, 4-(1,3,3a,4,7,7a-Hexahydro-1,3-dioxo-4,7-methano-2H-isoindol-2-yl)-N-8-quinolinyl-Benzamide]	increased the expression of cartilage-specific matrix genes	positively enriched	significant reduction in the degeneration of cartilage matrix	effectively induced chondrogenic nodule formation		
O=c1[nH]c(-c2ccc(C(F)(F)F)cc2)nc2c1CSCC2 [XAV939, 3,5,7,8-Tetrahydro-2-[4-(trifluoromethyl)phenyl]-4H-thiopyrano[4,3-d]pyrimidin-4-one]	increased the expression of cartilage-specific matrix genes	positively enriched	significant reduction in the degeneration of cartilage matrix	effectively induced chondrogenic nodule formation	reduction in the cartilage destruction	
Cc1cc(/C=C2\SC(=O)N(c3ccccc3)C2=O)c(C)n1-c1cccnc1 [iCRT 1429]						did not significantly affect the expression of cartilage matrisome
